Data taken from PubChem BioAssay (NCI).
“And” between values parts separate entries of the source, which are not always exact repeats. Equal entries are not always repeated.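 Cells were grown in 96-well plates and exposed to each compound for 48 hours at five concentrations; endpoints were interpolated linearly between bracketing concentrations, or set to the highest concentration if not reached. GI50 is the concentration that inhibits growth by half. Definition used: TGI = concentration required for complete inhibition of growth.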

Experiments:
Experiment in all cases: DTP human tumour cell line panel, 48 h
[1] = system: 786-0 renal
[2] = system: M14 melanoma
[3] = system: NCI-H23 lung
[4] = system: OVCAR-4 ovarian
[5] = system: SF-539 CNS
[6] = system: SK-MEL-5 melanoma
[7] = system: SK-OV-3 ovarian
[8] = system: SNB-75 CNS
[9] = system: UACC-257 melanoma
[10] = system: UO-31 renal

Compound	GI50 [1]	TGI [1] [µM]	GI50 [2]	TGI [2]	GI50 [3]	TGI [3]	GI50 [4]	TGI [4]	GI50 [5]	TGI [5]	GI50 [6]	TGI [6]	GI50 [7]	TGI [7]	GI50 [8]	TGI [8]	GI50 [9]	TGI [9]	GI50 [10]	TGI [10]
NC(=O)c1sc(-n2cnc3ccccc32)cc1OCc1ccccc1Br	11100 nM	> 25	5710 nM	> 25 µM	4030 nM	> 25 µM	> 25000 nM	> 25 µM	5470 nM	> 25 µM	4.75 µM	> 25 µM	6940 nM	> 25 µM	10200 nM	> 25 µM	17300 nM	> 25 µM	15400 nM	> 25 µM
O=C(CC1(O)C(=O)Nc2c(Cl)cc(Cl)cc21)c1ccc(Br)cc1Br (stereo unspecified)	–	25.5	–	18.5 µM	–	21.2 µM	–	29.5 µM	–	36.5 µM	–	14.6 µM	–	44.2 µM	–	36.6 µM	–	22.9 µM	–	29.5 µM
CCCCCN(CCCCC)CCCNc1c2c(nc3ccc(Cl)cc13)CCCC2	3910 nM	13.6	1800 nM	3.41 µM	2120 nM	6.73 µM	2050 nM	12 µM	3600 nM	13.2 µM	1.82 µM	3.34 µM	4080 nM	13.8 µM	2380 nM	11.9 µM	2190 nM	4.52 µM	1930 nM	10.2 µM
CO[C@H](C(=O)[C@@H](O)[C@@H](C)O)[C@@H]1Cc2cc3cc(O[C@H]4C[C@@H](O[C@H]5C[C@@H](O)[C@H](O)C(C)O5)[C@H](O)C(C)O4)c(C)c(O)c3c(O)c2C(=O)[C@H]1O[C@H]1C[C@@H](O[C@H]2C[C@@H](O[C@H]3C[C@](C)(O)C(=O)C(C)O3)[C@@H](O)C(C)O2)[C@H](O)C(C)O1 (stereo partly specified)	101 nM	17.1	120 nM	0.817 µM	77.1 nM	1.07 µM	124 nM	7.04 µM	47.3 nM	0.224 µM	0.0385 µM	0.136 µM	139 nM	> 33.2 µM	45 nM	0.211 µM	99.5 nM	2.27 µM	159 nM	1.6 µM
COC(=O)[C@@H]1[C@H](O)[C@H](C)[C@H](O)[C@@](C)(O)/C=C\C=C(C)C(=O)Nc2c(C)c(OC(C)=O)c3c(c2O)C(=O)C(C)=C2OCOC(=C23)C(C)=C[C@@](C)(O)[C@H](O)[C@@H](C)[C@H]1OC(C)=O	–	> 100	> 100000 nM and 21000 nM and 29100 nM	> 100 µM and 66.9 µM and 86.5 µM	–	> 100 µM and 66.9 µM and 47.8 µM	63200 nM	> 100 µM and 66.9 µM	> 66900 nM	> 100 µM	20.5 µM	> 100 µM and 66.9 µM and 38.4 µM	> 66900 nM	> 100 µM	–	> 100 µM	35200 nM	> 100 µM and 66.9 µM and 93.1 µM	–	> 100 µM and 66.9 µM
COC1=CC(c2ccc[nH]2)=N/C1=C\c1[nH]c(C)c(C(=O)OC(C)C)c1C	47.6 nM	1.03	34 nM	1.23 µM	70.2 nM	1.74 µM	53.1 nM	4.62 µM	69 nM	1.53 µM	0.0242 µM	0.0773 µM	831 nM	4.65 µM	80.5 nM	1.96 µM	89.8 nM	1.87 µM	49.4 nM	0.175 µM
Cn1c2ccccc2c2c(Nc3ccccc3)c3ccccc3nc21	17300 nM	41.8	15900 nM	33.3 µM	31400 nM	67.4 µM	21100 nM	> 100 µM	12100 nM	28.6 µM	13.7 µM	28.1 µM	41000 nM	> 100 µM	26500 nM	> 100 µM	33000 nM	> 100 µM	51800 nM	> 100 µM
O=S1(=O)c2ccccc2NC(c2ccc3ccccc3c2)CC1c1ccccc1F (stereo unspecified)	–	> 100	–	> 100 µM	–	> 100 µM	–	> 100 µM	–	> 100 µM	–	> 100 µM	–	> 100 µM	–	> 100 µM	–	> 100 µM	–	> 100 µM
Cc1nc2ccccc2c(N)c1-c1cc(C)c2c(C)nc3ccccc3c2n1	1160 nM	2.45	1340 nM	2.65 µM	1560 nM	3.24 µM	831 nM	2.4 µM	1310 nM	2.59 µM	18.2 µM	> 37.4 µM	1800 nM	4.72 µM	1520 nM	3.16 µM	1790 nM	3.29 µM	780 nM	2.26 µM
O=C1C(=O)N(c2ccc(Cl)cc2Cl)C(=O)C(=O)C1c1nc2ccccc2s1	–	> 100	–	> 100 µM	–	> 100 µM	–	> 100 µM	–	> 100 µM	–	> 100 µM	–	> 100 µM	–	81.8 µM	–	> 100 µM	–	> 100 µM
COC1CCC(N2C(=O)CNc3ncc(-c4ccc(C(C)(C)O)nc4)nc32)CC1 (stereo unspecified)	962 nM and 243 nM	> 32.1	614 nM and 134 nM	> 6.95 µM and 11.8 µM	1160 nM and 350 nM	> 45.1 µM	568 nM and 120 nM	> 7.88 µM and 1.07 µM	1420 nM and 335 nM	6.95 µM and 4.7 µM	0.766 µM and 0.149 µM	2.79 µM and 1.46 µM	464 nM and 71.6 nM	3.93 µM and 0.551 µM	281 nM and 54.3 nM	3.54 µM and 1.6 µM	649 nM and 195 nM	5.23 µM and 3.83 µM	199 nM and 76.8 nM	3.08 µM and 10.5 µM
NC(=O)c1cccc2cn(-c3ccc([C@@H]4CCCNC4)cc3)nc12	16200 nM	33	10700 nM	26.3 µM	11300 nM	45 µM	16600 nM	41.5 µM	6720 nM	20.4 µM	13.8 µM	27 µM	12600 nM	38.2 µM	11800 nM	25.5 µM	15800 nM	30.7 µM	11300 nM	25.2 µM
